# Calls of active or inactive are those of the source. No cut-off for these calls is given here.
# How the values were obtained:
# Escherichia coli = experiment: Antibacterial activity against Escherichia coli; format: functional
# Enterococcus hirae = experiment: Antibacterial activity against Enterococcus hirae; format: functional
# [1] = Antioxidant activity assessed as ferrous ion chelating activity at 200 ug/ml; format: functional; details: dose 200.0 µg/ml
# Bacillus cereus = experiment: Antibacterial activity against Bacillus cereus; format: functional
# Legionella pneumophila = experiment: Antibacterial activity against Legionella pneumophila subsp. pneumophila; format: functional
# [2] = Antioxidant activity assessed as DPPH radical scavenging activity at 200 ug/ml relative to control; format: functional; details: dose 200.0 µg/ml
# Pseudomonas aeruginosa = experiment: Antibacterial activity against Pseudomonas aeruginosa; format: functional
# DNA = experiment: Induction of Escherichia coli supercoiled pBR322 DNA cleavage assessed as increase in formation of linear form of DNA at 250 ug/ml by agarose gel electrophoresis; format: nucleic-acid assay; details: dose 250.0 µg/ml
# Candida tropicalis = experiment: Antifungal activity against Candida tropicalis; format: functional
# Staphylococcus aureus = experiment: Antibacterial activity against Staphylococcus aureus; format: functional
# Candida albicans = experiment: Antifungal activity against Candida albicans; format: functional
# [3] = Antioxidant activity assessed as DPPH radical scavenging activity at 10 to 200 ug/ml; format: functional; details: dose 10-200 µg/ml
Compound,MIC (Escherichia coli) [µg/mL],MIC (Enterococcus hirae) [µg/mL],Activity [1] [%],MIC (Bacillus cereus) [µg/mL],MIC (Legionella pneumophila) [µg/mL],Activity [2] [%],MIC (Pseudomonas aeruginosa) [µg/mL],Activity (DNA),MIC (Candida tropicalis) [µg/mL],MIC (Staphylococcus aureus) [µg/mL],MIC (Candida albicans) [µg/mL],Activity [3]
O=C(Cn1cc(CCBr)nn1)Nc1ccc(NC(=O)Cn2cc(CCBr)nn2)cc1,128,32,30.4,64,32,30.5,64,Active,32,64,64,–
O=C(Cn1cc(CCc2ccccc2)nn1)Nc1ccc(NC(=O)Cn2cc(CCc3ccccc3)nn2)cc1,128,64,41.4,32,64,–,16,Active,64,32,64,Active
O=C(Cn1cc(CCn2cc(CCc3ccccc3)nn2)nn1)Nc1ccc(NC(=O)Cn2cc(CCn3cc(CCc4ccccc4)nn3)nn2)cc1,128,64,17.3,128,64,–,64,Active,16,64,64,Active
O=C(Cn1cc(CCn2cc(C3CCCC3)nn2)nn1)Nc1ccc(NC(=O)Cn2cc(CCn3cc(C4CCCC4)nn3)nn2)cc1,128,4,43.9,64,128,–,64,Active,4,16,32,Active
O=C(Cn1cc(CCn2cc(CCBr)nn2)nn1)Nc1ccc(NC(=O)Cn2cc(CCn3cc(CCBr)nn3)nn2)cc1,128,32,45.6,64,8,–,64,Active,32,64,8,Active
CC(C)CCc1cn(CCc2cn(CC(=O)Nc3ccc(NC(=O)Cn4cc(CCn5cc(CCC(C)C)nn5)nn4)cc3)nn2)nn1,128,16,44.9,128,16,21.9,32,Active,32,32,64,–
O=C(Cn1cc(-c2ccccc2)nn1)Nc1ccc(NC(=O)Cn2cc(-c3ccccc3)nn2)cc1,64,128,40.1,64,16,–,64,Active,32,64,64,Active
[N-]=[N+]=NCCc1cn(CC(=O)Nc2ccc(NC(=O)Cn3cc(CCN=[N+]=[N-])nn3)cc2)nn1,32,32,52.8,64,32,–,64,Active,16,64,8,Active
CC1(C)S[C@@H]2[C@H](NC(=O)[C@H](N)c3ccccc3)C(=O)N2[C@H]1C(=O)O [AMPICILLIN],0.5,0.5,–,1,0.5,–,0.5,–,–,1,–,–
OC(Cn1cncn1)(Cn1cncn1)c1ccc(F)cc1F [FLUCONAZOLE],–,–,–,–,–,–,–,–,0.5,–,0.5,–
